In paper PMC5601486, “Identification of 4-phenylquinolin-2(1H)-one as a specific allosteric inhibitor of Akt” (Scientific Reports, 2017):

Key:
[1] = tested on: CDK8; test: KINOMEscan; settings: 50000 nM
Experimental: KINOMEscan™ selectivity screen
(§1) The assay was perfor med at DiscoveRx Corporation according the methods published previously5. Briefly, Kinase-tagged T7 phage strains were grown in parallel in an E. coli host derived from the BL21 strain. E. coli were grown to log-phase and infected with T7 phage from a frozen stock and incubated with shaking at 32°C until lysis (90-150 minutes). The kinases were produced in HEK-293 cells and subsequently tagged with DNA for qPCR detection. Streptavidin-coated magnetic beads were treated with biotinylated small molecule ligands to generate affinity resins for kinase
(§2) inhibitor or DMSO control was performed in polypropylene 384-well plates for 1 hr at room temperature. After wash with PBS buffer containing 0.05% Tween 20, the beads were incubated in elution buffer (PBS containing 0.05 % Tween 20 and 0.5 μM non-biotinylated affinity ligand) for 30 minutes at room temperature. The kinase concentration in the eluates was measured by qPCR.

[2] = tested on: EPHB2; test: KINOMEscan; settings: 50000 nM
Experimental: KINOMEscan™ selectivity screen
as §1, §2

[3] = tested on: CDK2; test: KINOMEscan; settings: 50000 nM
Experimental: KINOMEscan™ selectivity screen
(§3) Briefly, Kinase-tagged T7 phage strains were grown in parallel in an E. coli host derived from the BL21 strain. E. coli were grown to log-phase and infected with T7 phage from a frozen stock and incubated with shaking at 32°C until lysis (90-150 minutes). The kinases were produced in HEK-293 cells and subsequently tagged with DNA for qPCR detection. Streptavidin-coated magnetic beads were treated with biotinylated small molecule ligands to generate affinity resins for kinase
as §2

[4] = tested on: EGFR(S752-I759del); test: KINOMEscan; settings: 50000 nM
Experimental: KINOMEscan™ selectivity screen
as §1, §2

[5] = tested on: EGFR(L858R,T790M); test: KINOMEscan; settings: 50000 nM
Experimental: KINOMEscan™ selectivity screen
as §1, §2

[6] = tested on: GRK3; test: KINOMEscan; settings: 50000 nM
Experimental: KINOMEscan™ selectivity screen
as §3, §2

[7] = tested on: SLK; test: KINOMEscan; settings: 50000 nM
Experimental: KINOMEscan™ selectivity screen
as §1, §2

[8] = tested on: MLK1; test: KINOMEscan; settings: 50000 nM
Experimental: KINOMEscan™ selectivity screen
as §1, §2

[9] = tested on: NEK2; test: KINOMEscan; settings: 50000 nM
Experimental: KINOMEscan™ selectivity screen
as §1, §2

[10] = tested on: EPHA2; test: KINOMEscan; settings: 50000 nM
Experimental: KINOMEscan™ selectivity screen
as §3, §2

[11] = tested on: CDK7; test: KINOMEscan; settings: 50000 nM
Experimental: KINOMEscan™ selectivity screen
as §1, §2

[12] = tested on: RIPK4; test: KINOMEscan; settings: 50000 nM
Experimental: KINOMEscan™ selectivity screen
as §1, §2

[13] = tested on: PAK3; test: KINOMEscan; settings: 50000 nM
Experimental: KINOMEscan™ selectivity screen
as §1, §2

[14] = tested on: ERK2; test: KINOMEscan; settings: 50000 nM
Experimental: KINOMEscan™ selectivity screen
as §1, §2

[15] = tested on: PIK3CA(C420R); test: KINOMEscan; settings: 50000 nM
Experimental: KINOMEscan™ selectivity screen
as §3, §2

[16] = tested on: S6K1; test: KINOMEscan; settings: 50000 nM
Experimental: KINOMEscan™ selectivity screen
as §1, §2

[17] = tested on: TSSK3; test: KINOMEscan; settings: 50000 nM
Experimental: KINOMEscan™ selectivity screen
as §1, §2

[18] = tested on: MET(M1250T); test: KINOMEscan; settings: 50000 nM
Experimental: KINOMEscan™ selectivity screen
The assay was perfor med at DiscoveRx Corporation according the methods published previously5. […] The kinases were produced in HEK-293 cells and subsequently tagged with DNA for qPCR detection. Streptavidin-coated magnetic beads were treated with biotinylated small molecule ligands to generate affinity resins for kinase
as §2

[19] = tested on: EPHB1; test: KINOMEscan; settings: 50000 nM
Experimental: KINOMEscan™ selectivity screen
as §3, §2

[20] = tested on: CAMK2D; test: KINOMEscan; settings: 50000 nM
Experimental: KINOMEscan™ selectivity screen
as §3, §2

[21] = tested on: DYRK2; test: KINOMEscan; settings: 50000 nM
Experimental: KINOMEscan™ selectivity screen
as §1, §2

[22] = tested on: FLT3(D835H); test: KINOMEscan; settings: 50000 nM
Experimental: KINOMEscan™ selectivity screen
as §1, §2

[23] = tested on: BMPR2; test: KINOMEscan; settings: 50000 nM
Experimental: KINOMEscan™ selectivity screen
as §1, §2

[24] = tested on: MYLK2; test: KINOMEscan; settings: 50000 nM
Experimental: KINOMEscan™ selectivity screen
as §1, §2

[25] = tested on: MEK2; test: KINOMEscan; settings: 50000 nM
Experimental: KINOMEscan™ selectivity screen
as §1, §2

[26] = tested on: Akt T308 phosphorylation; test: Western blot analysis of T308 phosphorylation; format: cell-based; settings: Mus musculus, N2a, 0.5 h; Neuro 2A cells, G7 30 min then IGF 30 min
Experimental: The following criteria were applied for hit selection from the primary screen: 1, hits in robust curve classes (1/2/3) with efficacy greater than 30% were considered active; 2, these hits were filtered for donor interference; 3, hits were further filtered by reactive and promiscuous functional groups, as previously described4; 4, hits were clustered by structural similarity using Leadscope Hosted Client (Leadscope Inc., Columbus, […]
Neuro 2A cells were seeded in 12-well plates in DMEM containing 5% FBS for 24 hr.
After overnight serum starvation (in 0% FBS DMEM), cells were incubated for 30 min at 37 °C with G7 or LY294002 or Torin 1 (Sigma Aldrich) at various concentrations, or DMSO control. IGF-1 was added to each well at a final concentration of 100 ng/mL. After 30-min incubation cells were washed with cold PBS and lysed with 50 µL lysis buffer containing 1% Triton X-100 and protease/phosphatase inhibitors (Cell Signaling Technology) or RIPA buffer (Santa Cruz Biotech). […]
anti- GAPDH (14C10) antibody (#2118) (all antibodies were from Cell Signaling Technology unless indicated, 1:1000 dilution was used) at 4°C overnight, washed three times with TBS-T, then incubated with peroxidase-conjugated secondary antibody (Sigma-Aldrich) for 1 hr at room temperature. […] Band intensity was quantitated using Kodak 1D imaging analysis software. […]

[27] = tested on: MEK4; test: KINOMEscan; settings: 50000 nM
Experimental: KINOMEscan™ selectivity screen
as §1, §2

[28] = tested on: BUB1; test: KINOMEscan; settings: 50000 nM
Experimental: KINOMEscan™ selectivity screen
as §1, §2

[29] = tested on: RSK3(Kin.Dom.1-N-terminal); test: KINOMEscan; settings: 50000 nM
Experimental: KINOMEscan™ selectivity screen
as §3, §2

[30] = tested on: CDK11; test: KINOMEscan; settings: 50000 nM
Experimental: KINOMEscan™ selectivity screen
as §1, §2

[31] = tested on: DYRK1A; test: KINOMEscan; settings: 50000 nM
Experimental: KINOMEscan™ selectivity screen
as §1, §2

[32] = tested on: KIT(D816V); test: KINOMEscan; settings: 50000 nM
Experimental: KINOMEscan™ selectivity screen
as §1, §2

[33] = tested on: PIK3CA(H1047Y); test: KINOMEscan; settings: 50000 nM
Experimental: KINOMEscan™ selectivity screen
as §1, §2

[34] = tested on: BTK; test: KINOMEscan; settings: 50000 nM
Experimental: KINOMEscan™ selectivity screen
as §1, §2

[35] = tested on: PCTK1; test: KINOMEscan; settings: 50000 nM
Experimental: KINOMEscan™ selectivity screen
as §3, §2

[36] = tested on: PIK3CA; test: KINOMEscan; settings: 50000 nM
Experimental: KINOMEscan™ selectivity screen
as §1, §2

In the case of `Oc1cc(-c2ccccc2)c2ccccc2n1` [G7, 4-phenylquinolin-2(1H)-one], the “Percent Control” value [1] is reported as 85%, the “Percent Control” value [2] is reported as 93% and the “Percent Control” value [3] is reported as 88%. For the same compound, the “Percent Control” value [4] was 85%, the “Percent Control” value [5] was 90% and the “Percent Control” value [6] was 100%. For the same compound, the “Percent Control” value [7] was 89%, the “Percent Control” value [8] was 82% and the “Percent Control” value [9] was 77%. The “Percent Control” value [10] was 100%, the “Percent Control” value [11] was 84% and the “Percent Control” value [12] was 80%. For the same compound, the “Percent Control” value [13] was 81%, the “Percent Control” value [14] was 93% and the “Percent Control” value [15] was 100%. The “Percent Control” value [16] was 96%, the “Percent Control” value [17] was 95% and the “Percent Control” value [18] was 96%. For the same compound, the “Percent Control” value [19] was 91%, the “Percent Control” value [20] was 79% and the “Percent Control” value [21] was 72%. The “Percent Control” value [22] was 34%, the “Percent Control” value [23] was 82% and the “Percent Control” value [24] was 100%. The “Percent Control” value [25] was 72%, the IC50 [26] was 4.9 µM and the “Percent Control” value [27] was 93%. The “Percent Control” value [28] was 85%, the “Percent Control” value [29] was 69% and the “Percent Control” value [30] was 91%. The “Percent Control” value [31] was 54%, the “Percent Control” value [32] was 58% and the “Percent Control” value [33] was 100%. For the same compound, the “Percent Control” value [34] was 50%, the “Percent Control” value [35] was 91% and the “Percent Control” value [36] was 82%.
